According to PubChem BioAssay AID2060894 (Molecular Pharmacology Branch, DTP, NCI, 2025):
Values joined by “and” are separate entries in the source; they are usually repeats but may differ in a detail not shown here. Equal entries are not always repeated.

System: K12877-001-R-J1-PDC complex spheroid viability
Assay: Anticancer human tumor K12877-001-R-J1-PDC patient-derived lung adenocarcinoma cell line growth inhibition [RAS]
Conditions: for viability, T/C: stronger effect = lower value
Text: RAS pathway inhibitors in Combinations in Complex Spheroids
A high-throughput screen of multi-cell type tumor spheroids was designed to identify active combinations of RAS pathway inhibitors and targeted small molecules. Complex spheroids include a stromal component modeled by human endothelial cells (HUVEC) and fibroblasts modeled by human mesenchymal stem cells (MSCs). The concentration ranges selected for each drug and investigational agent were based upon clinically achievable concentrations if the clinical Cmax of the agent was known.
Compounds. The drugs and investigational agents: abemaciclib (NSC768073), cobimetinib (NSC768068), divarasib (GDC6063, NSC841802), docetaxel (NSC628503), GDC-1971 (RLY-1971, NSC841576), gemcitabine (NSC613327), inavolisib (NSC800729), ipatasertib (NSC767898), KB-0742 (NSC834161), MRTX-1133 (NSC836407), osimertinib (NSC779217), RMC-4630 (NSC839698), RMC-6236 (NSC851965), RMC-6291 (NSC852671), Ro-3306 (NSC812927), sapanisertib (NSC764658), SN-38 (NSC673596), staurosporine (NSC755774), SY5609 (NSC837396), and tovorafenib (DAY101, NSC766906), were obtained from the National Cancer Institute (NCI) Developmental Therapeutics Program Chemical Repository. The FDA-approved anticancer drug set is available from the NCI Developmental Therapeutics Program. […] The stock solutions were prepared in dimethyl sulfoxide (DMSO, Sigma-Aldrich, St. Louis, MO, cat. D2650) at 800-fold the tested concentration and stored at -70 degrees C prior to their use. All drugs and investigational agents were tested over a range starting from a high concentration at or near the clinical Cmax and decreasing in half-log increments. If the clinical Cmax for an agent had not been determined, the highest concentration tested was 10 microM.
Cell Culture. All cells were maintained in an incubator at 37 degrees C and 5% CO2 with 95% humidity. The PDC lines were cultured according to standard operating procedures established by the NCI PDMR. All PDCs were thawed and cultured in Matrigel-coated flasks prepared with a working solution of 1X Ham's F-12 nutrient mix, without supplementation (Invitrogen, Waltham, MA, cat. 11765054), 100 U/mL penicillin-streptomycin (Invitrogen, cat. 15140122), and 2.5% Matrigel (Corning Inc., Corning, NY, cat. 354248) for the first three passages. The 362531-283-R-J2-PDC and 782815-120-R-J1-PDC lines were cultured in 6C/Colon 1B media, which includes advanced DMEM/F-12 (Thermo Fisher Scientific, cat. 12634028), 10 mM HEPES (Thermo Fisher Scientific, cat. 15630080), 1X GlutaMAX supplement (Thermo Fisher Scientific, cat. 35050061), 0.1 mg/mL primocin (InvivoGen, San Diego, CA, cat. ant-pm-2), 10% defined fetal bovine serum, heat inactivated (HyClone Laboratories Inc., Logan, UT, cat. SH30070.03HI), 50% L-WRN conditioned media (ATCC, cat. CRL-3276), 1.25 mM N-Acetyl-L-cysteine (Sigma-Aldrich, cat. A9165), 10 mM nicotinamide (Sigma-Aldrich, cat. N0636), 1X B-27 supplement (Thermo Fisher Scientific, cat. 17504044), 1X N-2 supplement (Thermo Fisher Scientific, cat. 17502048), 50 ng/mL human EGF (Thermo Fisher Scientific, cat. PHG0311), and 10 microM Y-27632 dihydrochloride (Tocris Bioscience, cat. 1254). The K12877-001-R-J1-PDC line was cultured in 6I media, which includes all 6C/Colon 1B media plus 10 ng/mL human FGF-10 (PeproTech, cat. 100-26), 1 ng/mL human FGF-2 (PeproTech, cat. 100-18B), 1 µM prostaglandin E2 (Tocris Bioscience, cat. 2296), […] hydrocortisone (Sigma-Aldrich, cat. H4001), and […] bovine insulin (Sigma-Aldrich, cat. I6634). The K86415-001-R-J1-PDC line was cultured in 6D media, which includes all 6C/Colon 1B media components minus the L-WRN conditioned media. The 485176-168-R4-J1-PDC was cultured in PANC media, which includes all 6C/Colon 1B media plus 100 ng/mL human FGF-10 (PeproTech, cat. 100-26), 500 nM SB-431542 (Selleckchem, cat. S1067), and 10 nM gastrin (Tocris Bioscience, cat. 3006). […]

[1] = compound alone, run of 09/09/2024
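Note: spheroids exposed to agents for one week before readout.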

C#Cc1c(F)ccc2cc(O)cc(-c3ncc4c(N5CC6CCC(C5)N6)nc(OCC56CCCN5CC(F)C6)nc4c3F)c12 (centres undefined)
viability, T/C (compound 0.0316 µM): 105% [middle of 8 runs]
viability, T/C (compound 0.1 µM): 107% [middle of 8 runs]
viability, T/C (compound 0.316 µM): 110% [middle of 8 runs]
viability, T/C (compound 1 µM): 110% [middle of 8 runs]
viability, T/C (compound 3.16 µM): 101% [middle of 8 runs]
viability, T/C (compound 10 µM): 96.5% [middle of 8 runs]
IC50 [1]: > 10 µM

C=CC(=O)N1CCN(c2nc(OCC3CCCN3C)nc3c(F)c(-c4nc(N)cc(C)c4C(F)(F)F)c(Cl)cc23)C(C)C1 (centres undefined)
viability, T/C (compound 0.00316 µM): 99.2% [middle of 12 runs]
viability, T/C (compound 0.1 µM): 87.8% [middle of 12 runs]
viability, T/C (compound 0.316 µM): 86% [middle of 12 runs]
IC50 [1]: > 1 µM
IC50 (curve of compound): > 1 µM

C=CC(=O)Nc1cc(Nc2nccc(-c3cn(C)c4ccccc34)n2)c(OC)cc1N(C)CCN(C)C
viability, T/C (compound 0.00316 µM): 108% [middle of 4 runs]
viability, T/C (compound 0.01 µM): 106% [middle of 4 runs]
viability, T/C (compound 0.0316 µM): 106% [middle of 4 runs]
viability, T/C (compound 0.1 µM): 101% [middle of 4 runs]
viability, T/C (compound 0.316 µM): 103% [middle of 4 runs]
viability, T/C (compound 1 µM): 90.8% [middle of 4 runs]
IC50 (curve of compound): > 1 µM

CC(=O)OC12COC1CC(O)C1(C)C(=O)C(O)C3=C(C)C(OC(=O)C(O)C(NC(=O)OC(C)(C)C)c4ccccc4)CC(O)(C(OC(=O)c4ccccc4)C21)C3(C)C (centres undefined)
viability, T/C (compound 0.0316 µM): 8.58% [middle of 4 runs]
viability, T/C (compound 0.1 µM): 6.5% [middle of 4 runs]
viability, T/C (compound 0.316 µM): 5.06% [middle of 4 runs]
viability, T/C (compound 1 µM): 4.96% [middle of 4 runs]
viability, T/C (compound 3.16 µM): 6.68% [middle of 4 runs]
viability, T/C (compound 10 µM): 15% [middle of 4 runs]
IC50 (curve of compound): < 0.0316 µM

CC(C)NCC(C(=O)N1CCN(c2ncnc3c2C(C)CC3O)CC1)c1ccc(Cl)cc1 (centres undefined)
viability, T/C (compound 0.0316 µM): 107% and 110% (2×) and 97.4%
viability, T/C (compound 0.1 µM): 102% [middle of 4 runs]

CC(C)n1nc(-c2ccc3oc(N)nc3c2)c2c(N)ncnc21
viability, T/C (compound 0.000316 µM): 105% [middle of 4 runs]
viability, T/C (compound 0.00316 µM): 98.2% [middle of 4 runs]
viability, T/C (compound 0.0316 µM): 41.3% [middle of 4 runs]
viability, T/C (compound 0.1 µM): 15.5% and 26.6% (2×) and 20%
IC50 (curve of compound): 25.1 nM [middle of 4 runs]

CC(Nc1ccc2c(c1)OCCn1cc(N3C(=O)OCC3C(F)F)nc1-2)C(N)=O (centres undefined)
viability, T/C (compound 0.0316 µM): 91.3% [middle of 4 runs]
viability, T/C (compound 1 µM): 69.9% [middle of 4 runs]

CC1(C)CCC(Nc2ncc(C(F)(F)F)c(-c3c[nH]c4c(P(C)(C)=O)c(C#N)ccc34)n2)CN1 (centres undefined)
viability, T/C (compound 0.000949 µM): 102% [middle of 4 runs]
viability, T/C (compound 0.03 µM): 44.5% [middle of 4 runs]
viability, T/C (compound 0.0949 µM): 33% [middle of 4 runs]
viability, T/C (compound 0.3 µM): 28.3% [middle of 4 runs]
IC50 (curve of compound): 27.1 nM [middle of 4 runs]

CC1(O)CCCC1n1c(=O)c(C(F)F)cc2cnc(NC3CCN(S(C)(=O)=O)CC3)nc21 (centres undefined)
viability, T/C (compound 0.0316 µM): 99.7% [middle of 4 runs]
viability, T/C (compound 10 µM): 3.53% [middle of 4 runs]

CCC(CC)c1cc(NC2CCC(N)C2)n2nccc2n1 (centres undefined)
viability, T/C (compound 0.0316 µM): 104% [middle of 4 runs]
viability, T/C (compound 0.1 µM): 87.1% [middle of 4 runs]
viability, T/C (compound 0.316 µM): 103% [middle of 4 runs]
viability, T/C (compound 1 µM): 86.7% [middle of 4 runs]
viability, T/C (compound 3.16 µM): 2.99% [middle of 4 runs]
viability, T/C (compound 10 µM): 1.41% [middle of 4 runs]
IC50 (curve of compound): 1.65 µM [middle of 4 runs]
